ChEMBL document CHEMBL1138433, “New indole alkaloids from the North Sea bacterium Vibrio parahaemolyticus Bio249” (J Nat Prod, 2003)
Calls of active or inactive are those of the source.

Key:
Assay type in all cases: functional, organism-based
Candida albicans = experiment: Antifungal activity against Candida albicans by agar diffusion method
Escherichia coli = experiment: Antibacterial activity against Escherichia coli by agar diffusion method
Bacillus subtilis = experiment: Antibacterial activity against Bacillus subtilis by agar diffusion method
[1] = test system: Streptomyces viridochromogenes; experiment: Antibacterial activity against Streptomyces viridochromogenes by agar diffusion method
Rhizomucor miehei = experiment: Antifungal activity against Mucor miehei by agar diffusion method
Staphylococcus aureus = experiment: Antibacterial activity against Staphylococcus aureus by agar diffusion method

Measured: Activity

c1ccc2c(Cc3c[nH]c4ccccc34)c[nH]c2c1
inactive: all assays above

c1ccc2c(C(c3c[nH]c4ccccc34)c3c[nH]c4ccccc34)c[nH]c2c1
inactive: all assays above

CC(CC(c1c[nH]c2ccccc12)c1c[nH]c2ccccc12)c1c[nH]c2ccccc12 (centres undefined)
inactive: all assays above

CC(=O)C(C)(c1c[nH]c2ccccc12)c1c[nH]c2ccccc12
inactive: all assays above
